# Laboratory results as given in US8871796B2, “Diaryl ether derivatives as notch sparing gamma secretase inhibitors” (Merck Sharp & Dohme Corp., priority 2009, dated 2014).
# Where two headings read alike, the source gives them in different places.
# Test: APP processing: AlphaLisa assay of secreted Aβ40 and Aβ42 from SP4CT cells
# Type: cell-based
# Conditions: Homo sapiens, SH-SY5Y cells expressing amyloid β protein (SP4CT cells)
# Outline: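 Media from compound-treated SP4CT cells (SH-SY5Y expressing amyloid β protein) was assayed by AlphaLisa. Donor beads carried biotinylated 4G8 anti-Aβ antibody; acceptor beads carried G210 (Aβ40) or 12F4 (Aβ42) in separate plates, with luminescence proportional to peptide abundance.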
# [1] = read-out: IC50, inhibition of production of Aβ40 peptide
# [2] = read-out: IC50, inhibition of production of Aβ42 peptide
Compound,IC50 [1] [nM],IC50 [2] [nM]
"CCn1nc(-c2cccc(C(C)(C)NS(=O)(=O)CC(F)(F)F)c2)cc1Oc1ccc(CN2CC=C(C(F)(F)F)CC2)cc1 [Example 80, N-(1-{3-[1-ethyl-5-(4-{[4-(trifluoromethyl)-3,6-dihydropyridin-1(2H)-yl]methyl}phenoxy)-1H-pyrazol-3-yl]phenyl}-1-methylethyl)-2,2,2-trifluoroethanesulfonamide]",< 200,< 200
"CCn1nc(-c2cccc(C(C)(C)NS(=O)(=O)CC(F)(F)F)c2)cc1Oc1ccc(CNCC(=O)OC)cc1 [Example 81, methyl N-[4-({1-ethyl-3-[3-(1-methyl-1-{[(2,2,2-trifluoroethyl)sulfonyl]amino}ethyl)phenyl]-1H-pyrazol-5-yl}oxy)benzyl]glycinate]",< 200,< 200
CCn1nc(-c2cccc(C(C)(C)NS(=O)(=O)CC(F)(F)F)c2)cc1Oc1ccc(CNc2ccc(OC)cc2)cc1 [Example 82],< 200,< 200
"CCn1nc(-c2cccc(C(C)(C)NS(=O)(=O)CC(F)(F)F)c2)cc1Oc1ccc(CNc2ccon2)cc1 [Example 83, N-{1-[3-(1-ethyl-5-{4-[(isoxazol-3-ylamino)methyl]phenoxy}-1H-pyrazol-3-yl)phenyl]-1-methylethyl}-2,2,2-trifluoroethanesulfonamide]",< 200,< 200
"CCn1nc(-c2cccc(C(C)(C)NS(=O)(=O)CC(F)(F)F)c2)cc1Oc1ccc(CNc2ccccc2)cc1 [Example 84, N-[1-(3-{5-[4-(anilinomethyl)phenoxy]-1-ethyl-1H-pyrazol-3-yl}phenyl)-1-methylethyl]-2,2,2-trifluoroethanesulfonamide]",< 200,< 200
"CCn1nc(-c2cccc(C(C)(C)NS(=O)(=O)CC(F)(F)F)c2)cc1Oc1ccc(CNc2cccnc2)cc1 [Example 85, N-{1-[3-(1-ethyl-5-{4-[(pyridin-3-ylamino)methyl]phenoxy}-1H-pyrazol-3-yl)phenyl]-1-methylethyl}-2,2,2-trifluoroethanesulfonamide]",< 200,< 200
"CCn1nc(-c2cccc(C(C)(C)NS(=O)(=O)CC(F)(F)F)c2)cc1Oc1ccc(CNc2nccs2)cc1 [Example 86, N-{1-[3-(1-ethyl-5-{4-[(1,3-thiazol-2-ylamino)methyl]phenoxy}-1H-pyrazol-3-yl)phenyl]-1-methylethyl}-2,2,2-trifluoroethanesulfonamide]",< 200,< 200
"CCn1nc(-c2cccc(C(C)(C)NS(=O)(=O)CC(F)(F)F)c2)cc1Oc1ccc(CN2CCC3(CC2)OCCO3)cc1 [Example 87, N-[1-(3-{5-[4-(1,4-dioxa-8-azaspiro[4.5]dec-8-ylmethyl)phenoxy]-1-ethyl-1H-pyrazol-3-yl}phenyl)-1-methylethyl]-2,2,2-trifluoroethanesulfonamide]",< 200,< 200
"CCn1nc(-c2cccc(C(C)(C)NS(=O)(=O)CC(F)(F)F)c2)cc1Oc1ccc(CNCc2cccs2)cc1 [Example 88, N-(1-{3-[1-ethyl-5-(4-{[(2-thienylmethyl)amino]methyl}phenoxy)-1H-pyrazol-3-yl]phenyl}-1-methylethyl)-2,2,2-trifluoroethanesulfonamide]",< 200,< 200
"CCn1nc(-c2cccc(C(C)(C)NS(=O)(=O)CC(F)(F)F)c2)cc1Oc1ccc(CNCc2ccncc2)cc1 [Example 89, N-(1-{3-[1-ethyl-5-(4-{[(pyridin-4-ylmethyl)amino]methyl}phenoxy)-1H-pyrazol-3-yl]phenyl}-1-methylethyl)-2,2,2-trifluoroethanesulfonamide]",< 200,< 200
"CCn1nc(-c2cccc(C(C)(C)NS(=O)(=O)CC(F)(F)F)c2)cc1Oc1ccc(CNCC2(C)CCCO2)cc1 (centres unmarked) [Example 90, N-[1-(3-{1-ethyl-5-[4-({[(2-methyltetrahydrofuran-2-yl)methyl]amino}methyl)phenoxy]-1H-pyrazol-3-yl}phenyl)-1-methylethyl]-2,2,2-trifluoroethanesulfonamide]",< 200,< 200
"CCn1nc(-c2cccc(C(C)(C)NS(=O)(=O)CC(F)(F)F)c2)cc1Oc1ccc(CNCC2CCOCC2)cc1 [Example 91, N-(1-{3-[1-ethyl-5-(4-{[(tetrahydro-2H-pyran-4-ylmethyl)amino]methyl}phenoxy)-1H-pyrazol-3-yl]phenyl}-1-methylethyl)-2,2,2-trifluoroethanesulfonamide]",< 200,< 200
"CCn1nc(-c2cccc(C(C)(C)NS(=O)(=O)CC(F)(F)F)c2)cc1Oc1ccc(CNC2CCCOC2)cc1 (centres unmarked) [Example 92, N-{1-[3-(1-ethyl-5-{4-[(tetrahydro-2H-pyran-3-ylamino)methyl]phenoxy}-1H-pyrazol-3-yl)phenyl]-1-methylethyl}-2,2,2-trifluoroethanesulfonamide]",< 200,< 200
"CCn1nc(-c2cccc(C(C)(C)NS(=O)(=O)CC(F)(F)F)c2)cc1Oc1ccc(CN2CCN(C(C)=O)CC2)cc1 [Example 93, N-{1-[3-(5-{4-[(4-acetylpiperazin-1-yl)methyl]phenoxy}-1-ethyl-1H-pyrazol-3-yl)phenyl]-1-methylethyl}-2,2,2-trifluoroethanesulfonamide]",< 200,< 200
"CCn1nc(-c2cccc(C(C)(C)NS(=O)(=O)CC(F)(F)F)c2)cc1Oc1ccc(CNCc2cccnc2)cc1 [Example 94, N-(1-{3-[1-ethyl-5-(4-{[(pyridin-3-ylmethyl)amino]methyl}phenoxy)-1H-pyrazol-3-yl]phenyl}-1-methylethyl)-2,2,2-trifluoroethanesulfonamide]",< 200,< 200
"CCn1nc(-c2cccc(C3(NS(=O)(=O)CC(F)(F)F)COC3)c2)cc1Oc1ccc(C(F)(F)F)cc1 [Example 95, N-[3-(3-{1-ethyl-5-[4-(trifluoromethyl)phenoxy]-1H-pyrazol-3-yl}phenyl)oxetan-3-yl]-2,2,2-trifluoroethanesulfonamide]",< 200,< 200

# More lines, now with the values ahead:
IC50 [1] [nM],IC50 [2] [nM],Compound
< 200,< 200,"CCn1nc(-c2cccc(C3(NS(=O)(=O)NC)COC3)c2)cc1Oc1ccc(C(F)(F)F)cc1 [Example 97, N-[3-(3-{1-ethyl-5-[4-(trifluoromethyl)phenoxy]-1H-pyrazol-3-yl}phenyl)oxetan-3-yl]-N′-methylsulfamide]"
< 200,< 200,CCn1nc(-c2cccc(C3(NS(=O)(=O)NC4CCC(F)(F)C4)COC3)c2)cc1Oc1ccc(C(F)(F)F)cc1 (centres unmarked) [Example 99]
< 200,< 200,"CCn1nc(Oc2ccc(C(F)(F)F)cc2)cc1-c1cccc(C2(NS(=O)(=O)NCC(F)(F)F)COC2)c1 [Example 101, N-[3-(3-{1-ethyl-3-[4-(trifluoromethyl)phenoxy]-1H-pyrazol-5-yl}phenyl)oxetan-3-yl]-N′-(2,2,2-trifluoroethyl)sulfamide]"
< 200,< 200,CCn1nc(Oc2ccc(C(F)(F)F)cc2)cc1-c1cccc(C2(NS(=O)(=O)NCCC(F)(F)F)COC2)c1 [Example 102]
< 200,< 200,CCn1nc(Oc2ccc(C(F)(F)F)cc2)cc1-c1cccc(C2(NS(=O)(=O)NCC3CCC3)COC2)c1 [Example 103]
< 200,< 200,"CC(C)(NS(=O)(=O)CC(F)(F)F)c1cccc(-c2cc(Oc3ccc(C(F)(F)F)cc3)n(CCO)n2)c1 [Example 105, 2,2,2-trifluoro-N-[1-(3-{1-(2-hydroxyethyl)-5-[4-(trifluoromethyl)phenoxy]-1H-pyrazol-3-yl}phenyl)-1-methylethyl]ethanesulfonamide]"
< 200,< 200,"Cn1nc(-c2cccc(C3(NS(=O)(=O)CC(F)(F)F)CC3)c2)cc1Oc1ccc(C(F)(F)F)cc1 [Example 106, 2,2,2-trifluoro-N-[1-(3-{1-methyl-5-[4-(trifluoromethyl)phenoxy]-1H-pyrazol-3-yl}phenyl)cyclopropyl]ethanesulfonamide]"
< 200,< 200,"O=S(=O)(CC(F)(F)F)NC1(c2cccc(-c3cc(Oc4ccc(C(F)(F)F)cc4)n(CC(F)(F)F)n3)c2)CC1 [Example 107, 2,2,2-trifluoro-N-[1-(3-{1-(2,2,2-trifluoroethyl)-5-[4-(trifluoromethyl)phenoxy]-1H-pyrazol-3-yl}phenyl)cyclopropyl]ethanesulfonamide]"
< 200,< 200,"CCn1nc(-c2cccc(C(C)(C)NS(=O)(=O)CC(F)(F)F)c2)cc1Oc1ccc(C#N)cc1 [Example 108, N-(1-{3-[5-(4-cyanophenoxy)-1-ethyl-1H-pyrazol-3-yl]phenyl}-1-methylethyl)-2,2,2-trifluoroethanesulfonamide]"
< 200,< 200,"CCn1nc(-c2cccc(C3(NS(=O)(=O)CC(F)(F)F)CCC3)c2)cc1Oc1ccc(C(F)(F)F)cc1 [Example 109, N-[1-(3-{1-ethyl-5-[4-(trifluoromethyl)phenoxy]-1H-pyrazol-3-yl}phenyl)cyclobutyl]-2,2,2-trifluoroethanesulfonamide]"
< 200,< 200,"CCn1nc(-c2cccc(C3(NS(=O)(=O)CC(F)(F)F)CC3)c2)c(Cl)c1Oc1ccc(C(F)(F)F)cc1 [Example 111, N-[1-(3-{4-chloro-1-ethyl-5-[4-(trifluoromethyl)phenoxy]-1H-pyrazol-3-yl}phenyl)cyclopropyl]-2,2,2-trifluoroethanesulfonamide]"
< 200,< 200,"CCn1nc(-c2cccc(C(C)(C)NS(=O)(=O)CC(F)(F)F)c2)c(Cl)c1Oc1ccc(C(F)(F)F)cc1 [Example 112, N-[2-(3-{4-chloro-1-ethyl-5-[4-(trifluoromethyl)phenoxy]-1H-pyrazol-3-yl}phenyl)propan-2-yl]-2,2,2-trifluoroethanesulfonamide]"
